Experimental data: patent US9636368B2, “Strain of Lactobacillus rhamnosus and its metabolites for use in inhibiting xanthine oxidase and treating gout” (Food Industry Research and Development Institute, priority 2014, dated 2017)

Tested on: uric acid in the serum of the mice
Test: Treatment of experimental uricemia: potassium oxonate-induced high serum uric acid in ICR mice
Assay type: in vivo
Conditions: potassium oxonate (400 mg/kg) + allopurinol 10 mg/kg, fed via feeding tube, sacrificed after one hour, oxonate alone 4.91 ± 0.08, saline control 3.51 ± 0.02
Description: Lactobacillus rhamnosus I21 was inoculated on an MRS plate and cultured at 37° C. for 3 days. Bacteria were scraped from the plate using a 1 μl sterile inoculation loop, inoculated into MRS broth, and grown at 37° C. for 1 day to prepare an inoculum. The inoculum (30 ml) was then added into 3 L MRS broth in a 5 L fermenter and grown at 37° C. for 2 days. The fermentation broth was centrifuged at 3000 rpm for 15 min. The supernatant was collected and lyophilized to produce the Lactobacillus rhamnosus I21 fermentation product.
ICR mice were used as experimental animals. Potassium oxonate, a uricase inhibitor, was used to induce a high level of uric acid in the serum of the mice. Mice were fasted for one hour and then fed saline or potassium oxonate (400 mg/kg) via a feeding tube. After one hour, potassium oxonate-treated mice were fed saline, allopurinol (10 mg/kg), or a Lactobacillus rhamnosus I21 fermentation product (150 mg or 200 mg resuspended in saline per mouse) prepared as described above. Ten animals were used for each experimental group and for the control group. The animals were sacrificed after one hour and the level of uric acid in their serum was analyzed.

SMILES: Oc1ncnc2[nH]ncc12 [allopurinol]
- serum uric acid concentration: 2.82 ± 0.28 mg/dL
